Measured values as given in ChEMBL document CHEMBL4840343, “Fragment-based lead discovery of indazole-based compounds as AXL kinase inhibitors” (Bioorg Med Chem, 2021).
Values after ≈ are worked out from the molar mass of the structure shown. One block for each compound: values may come before it. Active and inactive are the calls of the source. The rule behind the calls is not given here.

What was measured:
[1] = target: T1, Tyrosine-protein kinase receptor UFO (Homo sapiens, UniProt P30530); assay: Inhibition of Axl (unknown origin) using 5'FAM labeled KKKKEEIYFFF-NH2 peptide as substrate incubated for 1.5 hrs
T1 sequence (P30530 whole entry): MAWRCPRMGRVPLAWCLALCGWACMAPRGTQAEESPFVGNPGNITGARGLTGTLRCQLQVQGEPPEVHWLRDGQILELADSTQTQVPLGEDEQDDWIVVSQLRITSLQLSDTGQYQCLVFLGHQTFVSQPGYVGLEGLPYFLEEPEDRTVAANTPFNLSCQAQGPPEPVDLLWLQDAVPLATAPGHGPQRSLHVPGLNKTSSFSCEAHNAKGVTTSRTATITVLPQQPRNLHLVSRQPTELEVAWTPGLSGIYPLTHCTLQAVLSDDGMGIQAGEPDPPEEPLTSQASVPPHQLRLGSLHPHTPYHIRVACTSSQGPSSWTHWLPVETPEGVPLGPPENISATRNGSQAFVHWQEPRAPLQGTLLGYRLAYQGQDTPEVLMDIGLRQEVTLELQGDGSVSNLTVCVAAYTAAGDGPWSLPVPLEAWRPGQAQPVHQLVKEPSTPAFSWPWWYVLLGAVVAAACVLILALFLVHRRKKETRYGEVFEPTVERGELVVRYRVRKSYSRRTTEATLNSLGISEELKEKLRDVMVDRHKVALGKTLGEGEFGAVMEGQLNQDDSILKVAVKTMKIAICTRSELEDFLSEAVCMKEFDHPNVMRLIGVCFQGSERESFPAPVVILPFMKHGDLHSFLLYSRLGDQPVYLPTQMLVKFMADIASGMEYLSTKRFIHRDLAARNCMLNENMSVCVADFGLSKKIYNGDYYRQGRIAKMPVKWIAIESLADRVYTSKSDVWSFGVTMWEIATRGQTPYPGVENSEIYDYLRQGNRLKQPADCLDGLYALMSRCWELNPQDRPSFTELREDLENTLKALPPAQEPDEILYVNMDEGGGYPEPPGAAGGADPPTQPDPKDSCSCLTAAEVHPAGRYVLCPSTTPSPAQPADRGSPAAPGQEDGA

[2] = target: T1, Tyrosine-protein kinase receptor UFO; assay: Displacement of K5 tracer from Axl (unknown origin) expressed in human HEK293 cells cotransfected with NanoLuc measured after 2 hrs by NanoBRET assay; format: cell-based
SK-OV-3 = assay: Antiproliferative activity against human SK-OV-3 cells as reduction in cell growth measured after 72 hrs by Celltiter-Glo luminescent assay; format: functional
[3] = AUC (0 to infinity) in mouse at 5 mg/kg, po; format: ADME, organism-based; set-up: route oral, time infinity, dose 5 mg/kg; conditions: in vivo
[4] = Permeability across apical to basolateral side in human Caco-2 cells; format: ADME, cell-based; conditions: read-out: permeability
[5] = target: Tyrosine-protein kinase receptor UFO (Homo sapiens) (UniProt P30530); assay: Inhibition of Axl in human SK-OV-3 cells assessed as reduction in phosphorylated Axl level measured after 1 hr by Western blot analysis; format: cell-based; conditions: dose 1-10 µM
[6] = Distribution coefficient, logD of compound at pH 7.4; format: physicochemical; conditions: octanol/water
[7] = Tmax in mouse at 5 mg/kg, po; format: ADME, organism-based; conditions: in vivo
[8] = Efflux ratio of permeability in human Caco-2 cells; format: ADME, cell-based
[9] = Cmax in mouse at 5 mg/kg, po; format: ADME, organism-based; set-up: route oral, dose 5 mg/kg; conditions: in vivo
[10] = Intrinsic clearance in human liver microsomes; format: ADME, Microsome; conditions: read-out: CLH
[11] = target: Tyrosine-protein kinase receptor UFO (Homo sapiens) (UniProt P30530); assay: Inhibition of Axl in human SK-OV-3 cells assessed as reduction in phosphorylated ERK1/2 level at 1 to 10 uM measured after 1 hr by Western blot analysis; format: cell-based; conditions: dose 1-10 µM
[12] = target: Proto-oncogene tyrosine-protein kinase receptor Ret (Homo sapiens) (UniProt P07949); assay: Inhibition of RET (unknown origin)
Chain of Proto-oncogene tyrosine-protein kinase receptor Ret (Homo sapiens) (P07949 whole entry): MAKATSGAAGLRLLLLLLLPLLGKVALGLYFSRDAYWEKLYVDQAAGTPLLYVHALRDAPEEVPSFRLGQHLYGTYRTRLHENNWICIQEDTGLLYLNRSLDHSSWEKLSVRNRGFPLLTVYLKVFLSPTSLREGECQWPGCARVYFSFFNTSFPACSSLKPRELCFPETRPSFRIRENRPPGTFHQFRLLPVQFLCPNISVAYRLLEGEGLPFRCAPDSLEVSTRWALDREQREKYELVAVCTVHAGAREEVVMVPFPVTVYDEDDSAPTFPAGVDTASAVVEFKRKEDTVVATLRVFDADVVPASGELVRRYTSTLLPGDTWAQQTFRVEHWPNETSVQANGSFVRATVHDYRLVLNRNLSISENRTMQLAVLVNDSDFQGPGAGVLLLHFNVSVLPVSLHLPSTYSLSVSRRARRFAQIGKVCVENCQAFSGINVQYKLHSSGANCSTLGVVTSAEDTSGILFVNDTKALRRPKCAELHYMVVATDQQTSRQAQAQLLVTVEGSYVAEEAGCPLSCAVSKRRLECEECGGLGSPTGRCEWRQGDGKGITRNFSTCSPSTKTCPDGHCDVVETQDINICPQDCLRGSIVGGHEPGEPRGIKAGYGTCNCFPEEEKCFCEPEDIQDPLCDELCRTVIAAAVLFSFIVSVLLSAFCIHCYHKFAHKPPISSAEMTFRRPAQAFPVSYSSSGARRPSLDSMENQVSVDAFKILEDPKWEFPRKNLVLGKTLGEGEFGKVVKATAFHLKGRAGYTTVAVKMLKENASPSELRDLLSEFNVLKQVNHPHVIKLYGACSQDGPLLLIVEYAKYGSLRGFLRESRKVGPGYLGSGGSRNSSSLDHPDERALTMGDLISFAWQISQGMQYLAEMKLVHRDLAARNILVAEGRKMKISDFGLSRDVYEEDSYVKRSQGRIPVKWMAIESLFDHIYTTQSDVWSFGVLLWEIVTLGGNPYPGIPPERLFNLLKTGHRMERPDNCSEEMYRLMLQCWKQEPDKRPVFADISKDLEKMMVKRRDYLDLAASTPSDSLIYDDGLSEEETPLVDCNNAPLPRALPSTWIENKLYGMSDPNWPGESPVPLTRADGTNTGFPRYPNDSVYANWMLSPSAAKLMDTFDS

[13] = Thermodynamic solubility of compound at pH 7.4; format: physicochemical; conditions: buffer, read-out: Therm_solubility
[14] = Permeability across basolateral to apical side in human Caco-2 cells; format: ADME, cell-based; conditions: read-out: permeability
[15] = Half life in mouse at 5 mg/kg, po; format: ADME, organism-based; conditions: in vivo
[16] = target: MAP kinase-interacting serine/threonine-protein kinase 2 (Homo sapiens) (UniProt Q9HBH9); assay: Inhibition of MKNK2 (unknown origin)
Chain of MAP kinase-interacting serine/threonine-protein kinase 2 (Homo sapiens) (Q9HBH9 whole entry, looked up): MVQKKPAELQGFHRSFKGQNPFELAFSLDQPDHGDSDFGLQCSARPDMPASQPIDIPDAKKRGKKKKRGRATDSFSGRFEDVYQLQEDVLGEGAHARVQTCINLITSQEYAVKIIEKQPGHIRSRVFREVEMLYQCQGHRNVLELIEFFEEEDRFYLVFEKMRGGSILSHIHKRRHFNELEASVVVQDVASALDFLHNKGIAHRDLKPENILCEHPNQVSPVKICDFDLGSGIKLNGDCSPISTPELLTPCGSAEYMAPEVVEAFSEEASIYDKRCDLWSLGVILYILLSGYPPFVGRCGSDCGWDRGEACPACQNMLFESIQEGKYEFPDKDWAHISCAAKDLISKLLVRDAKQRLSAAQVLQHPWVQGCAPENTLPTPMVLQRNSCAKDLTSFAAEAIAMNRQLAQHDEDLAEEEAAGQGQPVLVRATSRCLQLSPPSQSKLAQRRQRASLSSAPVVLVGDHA

[17] = target: Receptor-type tyrosine-protein kinase FLT3 (Homo sapiens) (UniProt P36888); assay: Inhibition of FLT3 (unknown origin)
Chain of Receptor-type tyrosine-protein kinase FLT3 (Homo sapiens) (P36888 whole entry): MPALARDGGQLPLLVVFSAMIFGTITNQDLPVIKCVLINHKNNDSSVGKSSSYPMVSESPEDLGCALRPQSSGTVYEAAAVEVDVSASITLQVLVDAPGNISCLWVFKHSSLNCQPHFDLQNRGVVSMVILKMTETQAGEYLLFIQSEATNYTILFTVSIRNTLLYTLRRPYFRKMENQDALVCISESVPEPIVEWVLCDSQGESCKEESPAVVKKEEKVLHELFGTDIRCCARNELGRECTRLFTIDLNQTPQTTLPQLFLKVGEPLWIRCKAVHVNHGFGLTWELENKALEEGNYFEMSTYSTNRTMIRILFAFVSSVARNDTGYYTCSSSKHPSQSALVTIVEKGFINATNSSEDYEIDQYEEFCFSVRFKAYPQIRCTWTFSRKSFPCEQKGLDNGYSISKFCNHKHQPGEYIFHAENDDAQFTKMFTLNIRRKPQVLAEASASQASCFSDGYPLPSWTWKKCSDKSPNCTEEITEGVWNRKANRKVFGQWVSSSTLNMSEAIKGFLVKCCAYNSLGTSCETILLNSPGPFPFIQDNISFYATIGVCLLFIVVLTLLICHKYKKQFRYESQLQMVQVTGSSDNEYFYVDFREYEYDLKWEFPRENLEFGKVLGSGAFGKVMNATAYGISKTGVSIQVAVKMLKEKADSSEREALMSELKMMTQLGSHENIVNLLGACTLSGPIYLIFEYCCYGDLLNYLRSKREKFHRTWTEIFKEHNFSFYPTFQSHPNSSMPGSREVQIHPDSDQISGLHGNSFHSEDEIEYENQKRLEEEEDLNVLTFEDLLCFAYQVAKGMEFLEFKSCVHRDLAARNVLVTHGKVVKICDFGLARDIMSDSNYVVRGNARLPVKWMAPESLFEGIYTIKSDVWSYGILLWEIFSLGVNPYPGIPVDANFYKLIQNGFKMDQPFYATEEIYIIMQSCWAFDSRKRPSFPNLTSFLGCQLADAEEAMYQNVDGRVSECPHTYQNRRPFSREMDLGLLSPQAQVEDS

[18] = Intrinsic clearance in mouse liver microsomes; format: ADME, Microsome; conditions: read-out: CLH

IC50 [1]: 219 µM
Structure (SMILES): Cn1cc(-c2n[nH]c3cc(Nc4ccccc4)ccc23)cn1

IC50 [1]: 1.54 µM
Structure (SMILES): Cn1cc(-c2n[nH]c3ccc(Br)cc23)cn1

IC50 [2]: 0.88 µM | IC50 [1]: 0.7 µM | GI50 (SK-OV-3): 0.0529 µM
Structure (SMILES): N#Cc1ccc(-n2cc(-c3n[nH]c4cc(Cl)c(N[C@@H]5CCNC5)cc34)cn2)cc1

AUC(0-inf) [3]: 1620 ng·h/mL | Papp A→B [4]: 15.2 ×10⁻⁶ cm/s | inhibition [5]: Dose-Dependent Effect | logD [6]: 4.75 | Tmax [7]: 0.25 h | efflux ratio [8]: 0.55 | Cmax [9]: 460 ng/mL | microsomal CLint [10]: 129 µL/min/mg | IC50 [2]: 11.4 µM | inhibition [11]: Active | inhibition [12]: Active | solubility thermodynamic [13]: 1.84 µg/mL (≈ 3.96 µM) | Papp B→A [14]: 8.41 ×10⁻⁶ cm/s | half-life [15]: 2.46 h | inhibition [16]: Active | IC50 [1]: 41.5 µM | GI50 (SK-OV-3): 1.02 µM | inhibition [17]: Active | microsomal CLint [18]: 44.8 µL/min/mg
Structure (SMILES): COc1ccc(-n2cc(-c3n[nH]c4cc(Cl)c(N[C@@H]5CCN(C6COC6)C5)cc34)cn2)cc1

AUC(0-inf) [3]: 573 ng·h/mL | Papp A→B [4]: 21.1 ×10⁻⁶ cm/s | logD [6]: 3.66 | Tmax [7]: 0.17 h | efflux ratio [8]: 0.82 | Cmax [9]: 258 ng/mL | microsomal CLint [10]: 15.4 µL/min/mg | IC50 [2]: 26.3 µM | solubility thermodynamic [13]: 4.58 µg/mL (≈ 10.7 µM) | Papp B→A [14]: 17.4 ×10⁻⁶ cm/s | half-life [15]: 2.6 h | IC50 [1]: 466 µM | microsomal CLint [18]: 43.9 µL/min/mg
Structure (SMILES): FC(F)(F)n1cc(-c2n[nH]c3cc(Cl)c(N[C@@H]4CCN(C5COC5)C4)cc23)cn1

IC50 [2]: 3.54 µM | IC50 [1]: 3.2 µM | GI50 (SK-OV-3): 2.78 µM
Structure (SMILES): N#Cc1ccccc1-n1cc(-c2n[nH]c3cc(Cl)c(N[C@@H]4CCNC4)cc23)cn1

IC50 [2]: 20.7 µM | IC50 [1]: 37 µM
Structure (SMILES): Cn1cc(-c2n[nH]c3ccc(N[C@@H]4CCNC4)cc23)cn1

IC50 [1]: 0.62 µM
Structure (SMILES): Cn1cc(-c2n[nH]c3ccc(-c4ccccc4)cc23)cn1

IC50 [1]: 8.91 µM
Structure (SMILES): Cn1cc(-c2n[nH]c3ccc(N)cc23)cn1

inhibition [5]: Dose-Dependent Effect | IC50 [2]: 0.374 µM | inhibition [11]: Active | IC50 [1]: 0.3 µM | GI50 (SK-OV-3): 0.718 µM
Structure (SMILES): COc1ccc(-n2cc(-c3n[nH]c4cc(Cl)c(N[C@@H]5CCNC5)cc34)cn2)cc1

IC50 [1]: 207 µM
Structure (SMILES): CN1CCC(Nc2ccc3[nH]nc(-c4cnn(C)c4)c3c2)CC1

IC50 [2]: 0.684 µM | IC50 [1]: 2.3 µM
Structure (SMILES): Fc1ccc(-n2cc(-c3n[nH]c4cc(Cl)c(N[C@@H]5CCNC5)cc34)cn2)cc1

Continued, compound first:

Structure (SMILES): Cn1cc(-c2n[nH]c3cc(Br)ccc23)cn1
IC50 [1]: 0.95 µM

Structure (SMILES): O=C1CC(c2ccccc2)=NN1
IC50 [1]: 13 µM

Structure (SMILES): Nc1ccc2c(-c3cccnc3)n[nH]c2c1
IC50 [1]: 28.4 µM

Structure (SMILES): Brc1c[nH]c2ncccc12
IC50 [1]: 22.8 µM

Structure (SMILES): CC(C)Nc1ccc2c(-c3cnn(C)c3)n[nH]c2c1
IC50 [1]: 46.6 µM

Structure (SMILES): Nc1ccc(Br)c2ccncc12
IC50 [1]: 57 µM

Structure (SMILES): c1cnc2[nH]ccc2c1
IC50 [1]: 391 µM

Structure (SMILES): O=C(O)c1ccc2cn[nH]c2c1
IC50 [1]: > 770 µM

Structure (SMILES): COc1ccc2[nH]c(C)cc2c1
IC50 [1]: 38 µM

Structure (SMILES): Clc1ncnc2ccsc12
IC50 [1]: 302 µM

Structure (SMILES): CSc1cc(-c2ccc(F)cc2)n[nH]1
IC50 [1]: 331 µM

Structure (SMILES): COc1cc2[nH]ncc2cc1Br
IC50 [1]: 227 µM

Structure (SMILES): Nc1cccc(-c2cccnc2)c1
IC50 [1]: 363 µM

Structure (SMILES): O=C(O)c1ccc2c(Br)n[nH]c2c1
IC50 [1]: > 770 µM
